Test results: PubChem BioAssay (NCI)
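Protocol summary: plate cells (96-well), add compound at 5 concentrations, incubate 48 h, interpolate endpoints linearly. TGI: concentration producing complete growth inhibition.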

Assays:
Assay in all cases: inhibition of tumour cell growth, NCI panel, 48 h
OVCAR-4 ovarian = test system: OVCAR-4 ovarian
HOP-92 NSCLC = test system: HOP-92 NSCLC
UACC-62 melanoma = test system: UACC-62 melanoma
MDA-MB-435 = test system: MDA-MB-435
SK-MEL-28 melanoma = test system: SK-MEL-28 melanoma
SF-539 CNS = test system: SF-539 CNS
CCRF-CEM leukemia = test system: CCRF-CEM leukemia
SF-295 CNS = test system: SF-295 CNS
SN12C renal = test system: SN12C renal
786-0 renal = test system: 786-0 renal
SK-MEL-5 melanoma = test system: SK-MEL-5 melanoma
UACC-257 melanoma = test system: UACC-257 melanoma
A549 NSCLC = test system: A549 NSCLC
KM12 colon = test system: KM12 colon
TK-10 renal = test system: TK-10 renal
HCT-15 colon = test system: HCT-15 colon
SK-MEL-2 melanoma = test system: SK-MEL-2 melanoma
HCT-116 colon = test system: HCT-116 colon
MALME-3M melanoma = test system: MALME-3M melanoma
BT-549 breast = test system: BT-549 breast
SW-620 colon = test system: SW-620 colon
CAKI-1 renal = test system: CAKI-1 renal
LOX IMVI melanoma = test system: LOX IMVI melanoma
NCI-H226 lung = test system: NCI-H226 lung
RPMI-8226 leukemia = test system: RPMI-8226 leukemia
A498 renal = test system: A498 renal
HCC-2998 colon = test system: HCC-2998 colon
SNB-19 CNS = test system: SNB-19 CNS
PC-3 prostate = test system: PC-3 prostate
T-47D breast = test system: T-47D breast
COLO 205 colon = test system: COLO 205 colon
SK-OV-3 ovarian = test system: SK-OV-3 ovarian
NCI/ADR-RES ovarian = test system: NCI/ADR-RES ovarian
HT29 colon = test system: HT29 colon
MDA-MB-231 breast = test system: MDA-MB-231 breast
MDA-N = test system: MDA-N
ACHN renal = test system: ACHN renal
HS 578T breast = test system: HS 578T breast
K-562 leukemia = test system: K-562 leukemia
SF-268 CNS = test system: SF-268 CNS
EKVX NSCLC = test system: EKVX NSCLC
RXF 393 renal = test system: RXF 393 renal
OVCAR-8 ovarian = test system: OVCAR-8 ovarian
U251 CNS = test system: U251 CNS
HL-60(TB) leukemia = test system: HL-60(TB) leukemia
SNB-75 CNS = test system: SNB-75 CNS
NCI-H23 lung = test system: NCI-H23 lung
MOLT-4 leukemia = test system: MOLT-4 leukemia
MCF7 breast = test system: MCF7 breast
UO-31 renal = test system: UO-31 renal
DU-145 prostate = test system: DU-145 prostate
NCI-H460 lung = test system: NCI-H460 lung
NCI-H522 lung = test system: NCI-H522 lung
OVCAR-3 ovarian = test system: OVCAR-3 ovarian
IGROV1 ovarian = test system: IGROV1 ovarian
M14 melanoma = test system: M14 melanoma
SR leukemia = test system: SR leukemia
HOP-62 NSCLC = test system: HOP-62 NSCLC
OVCAR-5 ovarian = test system: OVCAR-5 ovarian

Measured: TGI

O=C(CN1C(=O)c2ccccc2C1=O)OCC1CCCN2CCCCC12 (stereo not drawn)
not listed: NCI-H522 lung | OVCAR-3 ovarian | IGROV1 ovarian | M14 melanoma | SR leukemia | HOP-62 NSCLC | OVCAR-5 ovarian
> 100 µM: all other assays above

COC(=O)c1cc(/C=C2\Cc3cc4c(cc3C2=O)CCC4)cc2c1CCC2
not listed: HOP-92 NSCLC | SK-MEL-5 melanoma | RXF 393 renal
> 100 µM: all other assays above
